According to publication PMC9516563 (JACS Au, 2022):

Key:
[1] = Liposome dye leakage assay; settings: read-out: liposome EC50 (dye leakage); 200 nm liposomes filled with 50 mM carboxyfluorescein, 30 min incubation
[2] = system: SARS-CoV-2 spike pseudoparticles; format: cell-based; settings: read-out: IC50 against SARS-CoV-2 spike-mediated transduction
IAV = format: cell-based, Influenza strain A/PR/8/34 (H1N1; PR8); settings: read-out: IAV IC50
SARS-CoV-2 virions = system: SARS-CoV-2 virions; design: species or system SARS-CoV-2 isolate BetaCoV/France/IDF0372/2020
SARS-CoV-2 = format: cell-based, SARS-CoV-2 isolate BetaCoV/France/IDF0372/2020

## O=C(O)COc1c2c(c(OCC(=O)O)c3c1C1CC3c3cc4c(cc31)C1CC4c3ccccc31)C1CC2c2cc3c(cc21)C1CC3c2ccccc21 [CLR05]
[1]
  EC50: 121 µM
[2]
  IC50: 33 µM
IAV
  IC50: 70.3 µM
SARS-CoV-2 virions
  morphology of treated SARS-CoV-2 virions (TEM): largely disrupted
SARS-CoV-2
  inhibition of virus infection: ~70%
SARS-CoV-2; read-out: SARS-CoV-2 IC50
  IC50: 167 µM
